Experimental data as given in US20240025906A1 (NEURON23, INC., priority 2022, published 2024).
pIC50, pKd: −log10 of the molar value. Like-named read-outs stand apart in the source and are kept apart here.

Key:
TYK2 JH2 = target: T1, TYK2 JH2 (Homo sapiens, UniProt P29597); assay: TYK2 JH2 binding assay (KINOMEscan KdELECT competitive binding); conditions: TYK2 JH2 domain
T1 construct: purchased DiscoverX (KINOMEscan KdELECT service); host or cells: E. coli BL21-derived (T7 phage display) or HEK-293
Method in brief: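 Kd values come from qPCR measurement of kinase retained on an immobilized-ligand resin after 1 h room-temperature competition with compound in an 11-point, 3-fold series.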

[1] = system: JAK1/TYK2 pSTAT5 (Tyr694/699) in THP-1 cell line; assay: IFNa-stimulated JAK1/TYK2 pSTAT5 (Tyr694/699) inhibition cellular assay, AlphaLISA; assay type: cell-based; conditions: Homo sapiens, THP-1 cells, AlphaLISA (Assay B)
Method in brief: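 The readout is AlphaLISA signal at 615 nm for phospho-STAT5 in THP-1 lysates after IFNa stimulation (added at 100 ng/mL, 30 min, 37 °C). Cells had compound for 1 h beforehand across eight 6-fold concentrations up to 10000 nM final. IC50s are 4PL fits with bottom and Hill slope constrained.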

[2] = KINOMEscan KdELECT (Assay A), read-out: Biochemical TYK2_JH2_Kd
[3] = IFNa-stimulated, read-out: Cellular THP1_IFNa-pSTATS_IC50
[4] = KINOMEscan KdELECT (Assay A), read-out: Biochemical TYK2_DiscoverX_JH2_BND_Kd
[5] = IFNa-stimulated, read-out: Cellular_THP1_IFNa-pSTATS_TYK2
[6] = DiscoverX KINOMEscan KdELECT (Assay A), read-out: Biochemical TYK2_DiscoverX_JH2_BND_Kd

T1 sequence (P29597 589-875 limits assumed): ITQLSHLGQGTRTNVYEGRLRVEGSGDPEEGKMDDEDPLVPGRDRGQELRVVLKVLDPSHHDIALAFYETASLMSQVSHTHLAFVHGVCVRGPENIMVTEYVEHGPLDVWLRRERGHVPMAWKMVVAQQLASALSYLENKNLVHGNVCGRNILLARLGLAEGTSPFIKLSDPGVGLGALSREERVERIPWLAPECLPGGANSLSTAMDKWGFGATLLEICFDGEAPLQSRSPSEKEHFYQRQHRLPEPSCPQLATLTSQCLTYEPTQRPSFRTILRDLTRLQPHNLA

Compound	pKd (TYK2 JH2; [4])	pIC50 [1, 5]	pKd (TYK2 JH2; [6])	other results
CNc1ncc(C2CCOC2)c2cc(NC(=O)C3CC3)ncc12 (centres unmarked) [Example 76, N-(8-(methylamino)-5-(tetrahydrofuran-3-yl)-2,7-naphthyridin-3-yl)cyclopropanecarboxamide]				pKd (TYK2 JH2; [2]): ≥ 7.00; pIC50 [1, 3]: < 6.30
[2H]C([2H])([2H])n1nnc2ccc(C#Cc3cnc(NC)c4cnc(NC(=O)C5CC5)cc34)cc21 [Example 817, N-(5-((1-(methyl-d3)-1H-benzo[d][1,2,3]triazol-6-yl)ethynyl)-8-(methylamino)-2,7-naphthyridin-3-yl)cyclopropanecarboxamide]	≥ 7.00	≥ 6.30		
C=C(C)c1ccc2oc(-c3cnc(NC)c4cnc(NC(=O)C5CC5)cc34)nc2c1 [Example 931, N-(8-(methylamino)-5-(5-(prop-1-en-2-yl)benzo[d]oxazol-2-yl)-2,7-naphthyridin-3-yl)cyclopropanecarboxamide]	≥ 7.00	≥ 6.30		
CCC(=O)N1CC(Oc2ccc(C#Cc3cnc(NC)c4cnc(NC(=O)C5CC5)cc34)cc2)C1 [Example 770, N-(8-(methylamino)-5-((4-((1-propionylazetidin-3-yl)oxy)phenyl)ethynyl)-2,7-naphthyridin-3-yl) cyclopropanecarboxamide]	≥ 7.00	≥ 6.30		
CNc1ncc(-c2nc3cc(C(C)=O)ccc3o2)c2cc(NC(=O)C3CC3)ncc12 [Example 216, N-(5-(5-acetylbenzo[d]oxazol-2-yl)-8-(methylamino)-2,7-naphthyridin-3-yl)cyclopropanecarboxamide]		≥ 6.30	≥ 7.00	
CNc1ncc(C#Cc2ccc(OCC(C)(C)C#N)cc2)c2cc(NC(=O)C3CC3)ncc12 [Example 710, N-(5-((4-(2-cyano-2-methylpropoxy)phenyl)ethynyl)-8-(methylamino)-2,7-naphthyridin-3-yl)cyclopropanecarboxamide]	≥ 7.00	≥ 6.30		
CNc1ncc(N2CCCC2)c2cc(NC(=O)C3CC3)ncc12 [Example 55, N-(8-(methylamino)-5-(pyrrolidin-1-yl)-2,7-naphthyridin-3-yl)cyclopropanecarboxamide]				pKd (TYK2 JH2; [2]): ≥ 7.00; pIC50 [1, 3]: < 6.30
CNc1ncc(-c2nc3ccc(N4CCC(F)(F)CC4)cn3n2)c2cc(NC(=O)C3CC3)ncc12 [Example 483, N-(5-(6-(4,4-difluoropiperidin-1-yl)-[1,2,4]triazolo[1,5-a]pyridin-2-yl)-8-(methylamino)-2,7-naphthyridin-3-yl)cyclopropanecarboxamide]		≥ 6.30	≥ 7.00	
CNc1ncc(-c2nc3cc(O[C@H]4C[C@H](COC)C4)ccc3o2)c2cc(NC(=O)C3CC3)ncc12 [Example 348, N-(5-(5-((1r,3r)-3-(methoxymethyl)cyclobutoxy)benzo[d]oxazol-2-yl)-8-(methylamino)-2,7-naphthyridin-3-yl)cyclopropanecarboxamide]		≥ 6.30	≥ 7.00	
CNc1ncc(C#Cc2ccc(N3CCO[C@H](C)C3)cc2)c2cc(NC(=O)C3CC3)nnc12 [Example 883, (R)—N-(8-(methylamino)-5-((4-(2-methylmorpholino)phenyl)ethynyl)pyrido[3,4-c]pyridazin-3-yl)cyclopropanecarboxamide]	≥ 7.00	≥ 6.30		
CNc1ncc(-c2ccncc2)c2cc(NC(=O)C3CC3)ncc12 [Example 9]				pKd (TYK2 JH2; [2]): ≥ 7.00; pIC50 [1, 3]: < 6.30
[2H]C([2H])([2H])Nc1ncc(-c2nc3cc(N4C5CCC4COC5)ccc3o2)c2cc(NC(=O)C3CC3)ncc12 [Example 453, N-(5-(5-(3-oxa-8-azabicyclo[3.2.1]octan-8-yl)benzo[d]oxazol-2-yl)-8-((methyl-d3)amino)-2,7-naphthyridin-3-yl)cyclopropanecarboxamide]		≥ 6.30	≥ 7.00	
CNc1ncc(C#Cc2cn(C(F)F)c(C)n2)c2cc(NC(=O)C3CC3)ncc12 [Example 1006, N-(5-((1-(difluoromethyl)-2-methyl-1H-imidazol-4-yl)ethynyl)-8-(methylamino)-2,7-naphthyridin-3-yl)cyclopropanecarboxamide]	≥ 7.00			pIC50 ([1]; IFNa-stimulated pSTAT5 (Tyr694/699), read-out: Cellular_THP1_IFNa-pSTATS_TYK2): ≥ 6.30
CNc1ncc(C#Cc2ccncc2CO)c2cc(NC(=O)C3CC3)ncc12 [Example 669, N-(5-((3-(hydroxymethyl)pyridin-4-yl)ethynyl)-8-(methylamino)-2,7-naphthyridin-3-yl)cyclopropanecarboxamide]	≥ 7.00	≥ 6.30		
CNc1ncc(-c2nc3cc(N4CC[C@@H](OC)C4)ccc3o2)c2cc(NC(=O)C3CC3)ncc12 [Example 281, (R)-N-(5-(5-(3-methoxypyrrolidin-1-yl)benzo[d]oxazol-2-y1)-8-(methylamino)-2,7-naphthyridin-3-yl)cyclopropanecarboxamide]		≥ 6.30	≥ 7.00	
CNc1ncc(-c2nc3ccc(N4C[C@H]5C[C@@H]4CO5)cn3n2)c2cc(NC(=O)C3CC3)ncc12 [Example 489, N-(5-(6-((1R,4R)-2-oxa-5-azabicyclo[2.2.1]heptan-5-yl)-[1,2,4]triazolo[1,5-a]pyridin-2-yl)-8-(methylamino)-2,7-naphthyridin-3-yl)cyclopropanecarboxamide]		≥ 6.30	≥ 7.00	

Second part, led by results:

pKd (TYK2 JH2; [4])	pIC50 [1, 5]	pKd (TYK2 JH2; [6])	Compound	other results
≥ 7.00	≥ 6.30		CNc1ncc(C#Cc2ccc3c(c2)CCC(COC)O3)c2cc(NC(=O)C3CC3)ncc12 (centres unmarked) [Example 987, N-[5-[2-[2-(methoxymethyl)chroman-6-yl]ethynyl]-8-(methylamino)-2,7-naphthyridin-3-yl]cyclopropanecarobxamide]	
≥ 7.00	≥ 6.30		CNc1ncc(C#Cc2ccc(COC)cn2)c2cc(NC(=O)C3CC3)ncc12 [Example 964, N-[5-[2-[5-(methoxymethyl)-2-pyridyl]ethynyl]-8-(methylamino)-2,7-naphthyridin-3-yl]cyclopropanecarboxamide]	
	≥ 6.30	≥ 7.00	CNc1ncc(-c2nc3cc(N4CCO[C@@H](C)C4)ccc3o2)c2cc(NC(=O)[C@@H]3C[C@@H]3C(F)F)ncc12 (racemic) [Example 413, 2-(difluoromethyl)-N-(8-(methylamino)-5-(5-((S)-2-methylmorpholino)benzo[d]oxazol-2-yl)-2,7-naphthyridin-3-yl)cyclopropane-1-carboxamide]	
≥ 7.00	≥ 6.30		CNc1ncc(C#Cc2ccc(OC3CN(C(C)=O)C3)cn2)c2cc(NC(=O)C3CC3)ncc12 [Example 735, N-(5-((5-((1-acetylazetidin-3-yl)oxy)pyridin-2-yl)ethynyl)-8-(methylamino)-2,7-naphthyridin-3-yl)cyclopropanecarboxamide]	
	≥ 6.30	≥ 7.00	CNc1ncc(-c2nc3cc(OC)ccc3o2)c2cc(Nc3ccc(N4CCOCC4)cn3)ncc12 [Example 380, 4-(5-methoxybenzo[d]oxazol-2-yl)-N^1-methyl-N^6-(5-morpholinopyridin-2-yl)-2,7-naphthyridine-1,6-diamine]	
≥ 7.00	≥ 6.30		CNc1ncc(C#Cc2ccc(C(C)(C)O)cn2)c2cc(NC(=O)C3CC3)ncc12 [Example 662, N-(5-((5-(2-hydroxypropan-2-yl)pyridin-2-yl)ethynyl)-8-(methylamino)-2,7-naphthyridin-3-yl)cyclopropanecarboxamide]	
	≥ 6.30	≥ 7.00	CNc1ncc(-c2nc3cc(C(N)=O)ccc3o2)c2cc(NC(=O)C3CC3)ncc12 [Example 237, 2-(6-(cyclopropanecarboxamido)-1-(methylamino)-2,7-naphthyridin-4-yl)benzo[d]oxazole-5-carboxamide]	
≥ 7.00	≥ 6.30		CNc1ncc(C#Cc2ccc(N3CCCC3=O)cc2)c2cc(NC(=O)C3CC3)ncc12 [Example 674, N-(8-(methylamino)-5-((4-(2-oxopyrrolidin-1-yl)phenyl)ethynyl)-2,7-naphthyridin-3-yl)cyclopropanecarboxamide]	
	≥ 6.30	≥ 7.00	CNc1ncc(-c2nc3cc(N4CCOCC4)ccc3o2)c2cc(NC(=O)[C@@H]3C[C@@H]3CF)ncc12 (single isomer, unassigned) [Example 452]	
≥ 7.00	≥ 6.30		CNc1ncc(C#Cc2ccc(F)cn2)c2cc(NC(=O)C3CC3)ncc12 [Example 980, N-[5-[2-(5-fluoro-2-pyridyl)ethynyl]-8-(methylamino)-2,7-naphthyridin-3-yl]cyclopropanecarboxamide]	
≥ 7.00	≥ 6.30		CNc1ncc(-c2cc3ccc(N4CCOCC4)cn3n2)c2cc(NC(=O)C3CC3)ncc12 [Example 796, N-(8-(methylamino)-5-(6-morpholinopyrazolo[1,5-a]pyridin-2-yl)-2,7-naphthyridin-3-yl)cyclopropanecarboxamide]	
	≥ 6.30	≥ 7.00	CNc1ncc(-c2nc3cc(C4CCOCC4)ccc3o2)c2cc(NC(=O)C3CC3)ncc12 [Example 448, N-(8-(methylamino)-5-(5-(tetrahydro-2H-pyran-4-yl)benzo[d]oxazol-2-yl)-2,7-naphthyridin-3-yl)cyclopropanecarboxamide]	
